From US20090156545A1, “Substituted Phosphate Esters of Nucleoside Phosphonates” (priority 2005, published 2009)
Read-outs that look alike come from different tables or passages of the source.

Key:
Type in all cases: cell-based
[1] = test system: HIV-1Lai; assay: HIV-1Lai p24 reduction assay in MT-2 cells
[2] = test system: HCMV AD169; assay: HCMV AD169 plaque reduction assay in HFF cells
[3] = test system: MCMV; assay: MCMV plaque reduction assay in HFF cells; conditions: read-out: MCMV, 50% effective concentration, EC50
[4] = test system: HSV-1; assay: HSV-1 plaque reduction assay
[5] = test system: HSV-2; assay: HSV-2 plaque reduction assay
[6] = test system: Vaccinia WR; assay: microbe, parasite or virus in culture; conditions: read-out: Vaccinia, 50% effective concentration, EC50
[7] = test system: HSV-1; assay: HSV-1 DNA reduction assay in MRC-5 cells
[8] = test system: Cowpox Brighton; assay: organism not typed; conditions: read-out: Cowpox, 50% effective concentration, EC50
[9] = read-out: HCMV, 50% effective concentration, EC50
[10] = read-out: HSV-1, 50% effective concentration, EC50

| Compound | EC50 [3] | EC50 [2, 9] | EC50 [6] | EC50 [7, 10] | EC50 [8] | also measured |
| --- | --- | --- | --- | --- | --- | --- |
| Nc1ncnc2c1ncn2CCOCP(=O)(O)O [ADV, phosphonomethoxyethyadenine, reference compound] | – | – | – | – | – | EC50 ([1]; Human immunodeficiency virus 1, MT2, read-out: HIV-1, 50% effective concentration, EC50): 1300 nM |
| Nc1ccn(C[C@@H](CO)OCP(=O)(O)O)c(=O)n1 [HPMPC, (S)-9-[3-hydroxy-2-(phosphonomethoxy)-propyl]cytosine, reference compound] | 40 nM | – | – | – | – | EC50 ([2]; Human betaherpesvirus 5, read-out: HCMV, 50% effective concentration, EC50): 1200 nM; EC50 ([4]; Human alphaherpesvirus 1, read-out: HSV-1, 50% effective concentration, EC50): 15000 nM; EC50 ([5]; Human alphaherpesvirus 2, read-out: HSV-2, 50% effective concentration, EC50): 10500 nM; EC50 ([6]; Orthopoxvirus vaccinia, HFF): 31000 nM; EC50 ([7]; Human alphaherpesvirus 1, MRC5, read-out: HSV-1, 50% effective concentration, EC50): 3300 nM; EC50 ([8]; HFF): 42000 nM |
| CCCCCCCCCCCCCCCCCCOCCOP(=O)(O)OP(=O)(O)CO[C@H](CO)Cn1ccc(N)nc1=O [ODE-phospho-HPMPC] | 30 nM | 4 nM | 320 nM | 0.02 nM | 540 nM | – |
| (1-(4-aminooxopyrimidin-1(2H)-yl)-3-hydroxypropan-2-yloxy)methylphosphonic(3-hexadecyloxy)propylphosphoric) anhydride [HDP-phospho-HPMPC] | 350 nM | 100 nM | 2800 nM | 60 nM | 3900 nM | EC50 [4, 10]: 130 nM; EC50 ([5]; read-out: HSV-2, 50% effective concentration, EC50): 300 nM |
| (2-(6amino-9H-purin-9-yl)ethoxy)methylphosphonic(3-hexadecyloxy)propylphosphonic)anhydride [HDP-phospho-ADV] | – | – | – | – | – | EC50 ([1]; read-out: HIV-1, 50% effective concentration, EC50): 9 nM |
